Laboratory results: patent US20210196719A1, “USE OF CDK4/6 INHIBITOR IN COMBINATION WITH EGFR INHIBITOR IN THE PREPARATION OF MEDICAMENT FOR TREATING TUMOR DISEASES” (JIANGSU HENGRUI MEDICINE CO., LTD., priority 2018, published 2021)
Where two headings read alike, the source gives them in different places.

Legend:
[1] = tested on: human non-small cell lung adenocarcinoma cells (NCI-H1975); test: Proliferation inhibition of NCI-H1975 cells (SRB method, 7 days); format: cell-based; details: 168 h, read-out: Inhibition rate (%)
[2] = mouse, in vivo
[3] = tested on: human lung cancer NCI-H1975 transplanted tumor; test: Human lung cancer NCI-H1975 transplanted tumor model of nude mice; details: for Tumor volume (mm^3) D 1: D 1 (at grouping); for Tumor volume (mm^3) D 1 / Tumor weight / RTV (relative tumor volume) / Tumor volume (mm^3) D 22: x ± SE; for Tumor weight: D 22, after sacrifice; for T/C(%) (relative tumor growth rate): TRTV/CRTV; for RTV (relative tumor volume): Vt/V0; for Tumor volume (mm^3) D 22: intragastric q.d. 21 days, gefitinib 30, drug A 100(50), drug B 5 mg/kg
[4] = Body weight of nude mice in the NCI-H1975 transplanted tumor study; details: x ± SE

| Compound | inhibition at 0.005 µM ([1]; Drug B alone 5 nM) [%] | inhibition at 0.01 µM ([1]; Drug B alone 10 nM) [%] | Average body weight (g) D 1 [2] [g] | Tumor volume (mm^3) D 1 [3] [mm^3] | Tumor weight [3] [g] | T/C(%) (relative tumor growth rate) ([3]; D 22) | RTV (relative tumor volume) ([3]; D 22) | IR (%) (tumor inhibition percentage) ([3]; D 22, by tumor weight vs control) | Tumor volume (mm^3) D 22 ([3]; D 22) [mm^3] | Average body weight (g) D 1 ([4]; D 1, n=3) [g] | Average body weight (g) D 22 ([4]; D 22, intragastric q.d. 21 days, gefitinib 30, drug A 100(50), drug B 5 mg/kg) [g] |
| --- | --- | --- | --- | --- | --- | --- | --- | --- | --- | --- | --- |
| C=CC(=O)Nc1cc(Nc2nccc(-c3cn(C4CC4)c4ccccc34)n2)c(OC)cc1N(C)CCN(C)C [Drug B] | 50.3 | 53.8 | 22.8 ± 0.7 | 130 ± 44 | 0.1091 ± 0.0621 | 26.14 | 1.25±0.53 | 81.69 | 125±58 | – | – |
| COc1cc2ncnc(Nc3ccc(F)c(Cl)c3)c2cc1OCCCN1CCOCC1 [Gefitinib, gefitinib, reference compound] | – | – | – | 130 ± 41 | 0.4097 ± 0.1605 | 66.81 | 3.18±0.65 | – | 477±162 | 21.8 ± 0.6 | 24.5 ± 0.8 |
